Test results taken from patent publication US9936701B2, “Herbicidal compounds” (Syngenta Participations AG, priority 2013, dated 2018).

What was measured:
[1] = tested on: a variety of test species; assay: Post-emergence herbicidal activity (glasshouse, sprayed after 8 days cultivation, evaluated after 13 days); type: in vivo; parameters: key: 5=total damage to plant; 0=no damage to plant; conditions: rate 1000 g/Ha, scale 0-5
Outline: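 Pot-grown plants, 8 days after sowing, were sprayed with compound formulated in acetone/water (50:50) with 0.5% Tween 20. Glasshouse conditions 24/16° C day/night, 14 h light, 65% humidity; damage scored after 13 days on a 0 (none) to 5 (total) scale.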

[2] = tested on: a variety of test species; assay: Pre-emergence herbicidal activity (glasshouse, sprayed one day after sowing, evaluated after 13 days); type: in vivo; parameters: key: 5=total damage to plant; 0=no damage to plant; conditions: application pre-emergence, rate 1000 g/Ha, scale 0-5
Outline: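 Seeds sown in standard soil in pots, held one day in glasshouse (24/16 °C day/night, 14 h light, 65% humidity), then sprayed with aqueous solution of compound formulated in acetone/water 50:50 with 0.5% Tween 20. Grown on under same conditions, watered twice daily; damage scored after 13 days (0 = none, 5 = total).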

| SMILES | melting point | ABUTH (Abutilon theophrasti) damage score, application post-emergence [1] | ALOMY (Alopecurus myosuroides) damage score, application post-emergence [1] | AMARE (Amaranthus retroflexus) damage score, application post-emergence [1] | ECHCG (Echinochloa crus-galli) damage score, application post-emergence [1] | SETFA (Setaria faberi) damage score, application post-emergence [1] | ZEAMX (Zea mays) damage score, application post-emergence [1] | Pre-emergence herbicidal damage score, ABUTH [2] | Pre-emergence herbicidal damage score, ALOMY [2] | Pre-emergence herbicidal damage score, AMARE [2] | Pre-emergence herbicidal damage score, ECHCG [2] | Pre-emergence herbicidal damage score, SETFA [2] | Pre-emergence herbicidal damage score, ZEAMX [2] |
| --- | --- | --- | --- | --- | --- | --- | --- | --- | --- | --- | --- | --- | --- |
| CCC1=C(Cl)C(=O)N(c2noc(C(C)(C)C)c2C#N)C1O (stereo not shown) [A58] | 134 to 136 °C | 5 | 5 | 5 | 5 | 5 | 5 | 5 | 4 | 5 | 5 | 5 | 4 |
| CCC1=C(Cl)C(=O)N(c2noc(C(C)(C)CC)c2C#N)C1O (stereo not shown) [A60] | 110 to 112 °C | 5 | 4 | 5 | 5 | 5 | 2 | 5 | 3 | 5 | 4 | 5 | 3 |
| CC1=C(Br)C(=O)N(c2noc(C(C)C)c2C#N)C1O (stereo not shown) [A61] | 127 to 129 °C | 5 | 5 | 5 | 5 | 5 | 3 | 5 | 4 | 5 | 5 | 5 | 3 |
| CCC1=C(Br)C(=O)N(c2noc(C(C)C)c2C#N)C1O (stereo not shown) [A62] | 106 to 108 °C | 5 | 4 | 5 | 5 | 5 | 3 | 5 | 3 | 5 | 4 | 5 | 3 |
| CCC1=C(Cl)C(=O)N(c2noc(C(C)C)c2C#N)C1O (stereo not shown) [A63] | 93 to 95 °C | 5 | 4 | 5 | 5 | 5 | 3 | 5 | 3 | 5 | 5 | 5 | 3 |
| CCC1=C(Cl)C(=O)N(c2cc(C(C)(C)C#N)on2)C1O (stereo not shown) [A64] | 101 to 102 °C | 5 | 5 | 5 | 5 | 5 | 4 | 4 | 3 | 5 | 5 | 5 | 1 |
| CCCC1=C(Cl)C(=O)N(c2cc(C(C)(C)C#N)on2)C1O (stereo not shown) [A65] | 99 to 100 °C | 5 | 5 | 5 | 5 | 5 | 4 | 5 | 3 | 5 | 5 | 5 | 2 |
| C=CC(C)(C)c1onc(N2C(=O)C(Cl)=C(C)C2O)c1C#N (stereo not shown) [A66] | 150 to 152 °C | 5 | 5 | 5 | 5 | 5 | 3 | 5 | 3 | 5 | 5 | 4 | 1 |
| CCCC1=C(Cl)C(=O)N(c2noc(C(C)(C)CC)c2C#N)C1O (stereo not shown) [A68] | 82 to 84 °C | 5 | 5 | 5 | 5 | 5 | 1 | 4 | 3 | 3 | 5 | 5 | 1 |
| CCc1onc(N2C(=O)C(Cl)=C(C)C2O)c1C#N (stereo not shown) [A71] | 95 to 97 °C | 5 | 4 | 5 | 5 | 5 | 2 | 4 | 3 | 5 | 4 | 5 | 2 |
| CC1=C(Cl)C(=O)N(c2cc(C(C)(C)CC#N)on2)C1O (stereo not shown) [A72] | 103 to 105 °C | 5 | 5 | 5 | 5 | 5 | 5 | 5 | 4 | 5 | 5 | 5 | 4 |
| CCCC1=C(Br)C(=O)N(c2noc(C(C)(C)C)c2C#N)C1OC(=O)CC (stereo not shown) [A73] | 78 to 80 °C | 5 | 4 | 5 | 5 | 5 | 2 | 5 | 3 | 5 | 4 | 5 | 3 |
| CC1=C(Cl)C(=O)N(c2cc(C(C)(C)C)on2)C1OC(=O)OCC(C)C (stereo not shown) [A80] | 84 to 88 °C | 5 | 5 | 5 | 5 | 5 | 3 | 5 | 4 | 5 | 5 | 5 | 3 |
